# Measured values from patent publication US10202420B2, “Methods and compositions for treatment of cartilage and disc tissue pathologies” (THE ROYAL INSTITUTION FOR ADVANCEMENT OF LEARNING/MCGILL …, priority 2013, dated 2019).
# Where no end group is shown, it is not given here.
# Key:
# [1] = tested on: human nucleus pulposus (NP) cells; assay: Proteoglycan synthesis by 35SO4 incorporation, cells in alginate beads; assay type: cell-based; details: 48 h, 16-mer peptides 1 μg/mL, 8-mer peptides 0.5 μg/mL, vs medium alone
# Experimental: (§1) Human thoracolumbar spines were retrieved through the Transplant Quebec organ donation program. Discs were obtained from 7 donors, 1 male and 6 female, with a mean age of 29.6 years and an age range of 16 to 47 years (Table 1). Donors having had recent chemotherapy, radiation therapies to the spine, or significant long-standing paralysis were excluded from the study. Spine retrieval was performed within 8 h of death. Discs with calcification and loss of disc height were not included in the study. All procedures were approved by the institutional review board of the Montreal General Hospital.
# (§2) Human and bovine IVDs were separated from the adjoining vertebral body and divided into NP and AF for bovine IVDs and NP and inner annulus fibrosus (iAF) for human IVDs. Tissue from the human outer annulus fibrosus (oAF) was not used for cell isolation in this study. Cells were enzymatically isolated from each region as previously described (63). Briefly, NP and AF tissues were dissected into approximately 2-mm thick pieces, washed twice in PBS containing 50 μg/mL gentamicin, […] and 0.25 μg/mL fungizone, then digested with 0.2% pronase for 1 h, followed by collagenase type IA at 0.01% for NP and 0.04% for AF tissue for 4 h in serum free DMEM.
# (§3) To compare the metabolic response to the various Link N peptides, freshly isolated human and bovine cells from NP and AF regions were embedded in 1.2% alginate beads, as previously described (65). Cells in alginate beads were cultured at 37° C., 5% CO2 in DMEM, containing 4.5 g/L glucose and supplemented with 10% FCS, 25 mmol/L HEPES, 50 μg/mL gentamicin sulphate, 0.25 μg/mL fungizone, 50 μg/mL L-ascorbate, and 2 mmol/L GlutaMAX. The beads were stabilized for 7 days and cell viability was assessed by Live/Dead® assay prior to further treatment. 5 beads per well were then cultured in 48 well plates in the presence of equimolar concentrations of either Link N (1 μg/mL), R-Link N (1 μg/mL), S-Link N (1 μg/mL), Link N 1-8 (0.5 μg/mL) or Link N 9-16 (0.5 μg/mL) in 0.5 mL DMEM. 25 μCi/mL ^35SO4 was added to the medium to allow assessment of proteoglycan synthesis (66). In addition, beads were exposed for 48 h to IL-1β (10 ng/mL) alone, or to a combination of peptides and IL-1β (51). At the end of the culture period, medium was collected and dialyzed exhaustively against miliQ water at […] (Spectra/Por® 3), followed by cold chase with 1M MgSO4 for 2 h to remove any remaining unincorporated ^35SO4. The ^35SO4 incorporation was measured using a beta scintillation counter (Beckman Coulter LS6500, Beckman Coulter, Mississauga, Canada).
# [2] = tested on: human inner annulus fibrosus (iAF) cells; assay: as above; assay type: cell-based; details: human AF (iAF) cells; 48 h; 16-mer peptides 1 μg/mL, 8-mer peptides 0.5 μg/mL; vs medium alone
# Experimental: as §1, §2, §3
# [3] = tested on: bovine annulus fibrosus (AF) cells; assay: as above; assay type: cell-based; details: 48 h, 16-mer peptides 1 μg/mL, 8-mer peptides 0.5 μg/mL, vs medium alone
# Experimental: as §2, §3
# [4] = tested on: bovine nucleus pulposus (NP) cells; assay: as above; assay type: cell-based; details: 48 h, 16-mer peptides 1 μg/mL, 8-mer peptides 0.5 μg/mL, vs medium alone
# Experimental: as §2, §3
# human AF cells = assay: Stability and processing of Link N in the presence of cells (monolayer, mass spectrometry); assay type: in vitro ADME; details: for peak area intensity of intact Link N in the presence of AF cells: human AF cells in monolayer
# Experimental: (§4) To evaluate the stability of Link N, freshly isolated human cells from NP and AF regions were plated in 6 well culture plates at a density of 250,000 cells per well. Cells were cultured at 37° C., 5% CO2 in 3 mL DMEM, containing 4.5 g/L glucose and supplemented with 10% FCS, 25 mmol/L HEPES, 50 μg/mL gentamicin sulphate, 0.25 μg/mL fungizone, 50 μg/mL L-ascorbate, and 2 mmol/L GlutaMAX. The wells were left for 2 days before exposure to Link-N (1 μg/mL). 200 μL medium was collected at fixed time points (0 h, 6 h, 12 h, 24 h, 36 h, and 48 h). Stability of the peptide was also studied at the same time points in the absence of cells.
# 25 μL medium samples, collected from the monolayer cultures described above or peptide digests were purified on C18 spin columns according to standard protocols (Harvard Apparatus, Holliston, Mass.). Eluted peptides were reconstituted in 20 μL, 2% acetonitrile and 0.2% formic acid (FA). Samples were injected and quantified using a triple quadropole mass spectrometer TSQ Vantage™ (Thermo Scientific, Waltham, Mass.) equipped with an easy nano-LC system (Thermo Scientific). The mass spectrometer was operated in SRM mode, with both Q1 and Q3 settings at unit resolution (FWHM 0.7 Da). A spray voltage of +1,700 V was used with a heated ion transfer setting of 270° C. for desolvation. Data were acquired using the Xcalibur software (version 2.1). Mobile phases used were A (0.1% FA in water) and B (100% acetonitrile in 0.1% FA). Separation was performed on 10 μm tip, 75 μm×15 cm capillary columns (PicoTip™ emitter, New Objective, Woburn, Mass.) packed with Reprosil-Pur C18-AQ resin (3 μm, Dr. Maich GmbH, Switzerland). 1 μL sample was injected and separation was performed at a flow rate of 300 nL/min using a gradient of 97% mobile phase A for 5 min, 85% A for 8 min, 65% A for 42 min, and 19% A for 45-50 min. […]
# [5] = LIVE/DEAD cell viability in alginate beads; assay type: cell-based; details: bovine, bovine intervertebral disc NP and AF cells in alginate beads, 1 μg/ml, 18 days, alginate scaffolds, read-out: cellular viability
# Experimental: Coccygeal IVDs from healthy 20-24 month old steers were obtained from a local abattoir at 2-3 hours after slaughter. The IVDs were separated from their adjacent vertebral bodies, and the cells were isolated from the NP and AF regions by sequential digestion with 0.2% Pronase followed by 0.125% Collagenase digestion as previously described. After isolation, the NP and AF cells were either immediately embedded in alginate beads or were plated in 6 well plates for protein extraction.
# After isolation the NP and AF cells were resuspended in 1.2% alginate (dissolved in 0.15 M NaCl) at a concentration of 2 million cells per ml. Alginate was chosen to assess the effect on matrix production in the absence of extensive cell proliferation. Droplets of cell suspension were released through an 18-gauge needle into 102 mM calcium chloride solution and were let to polymerize for 10 minutes. Alginate beads were subsequently stabilized for 7 days in culture media (Dulbecco's Modified Eagle Medium high glucose supplemented with 10% fetal bovine serum and antibiotics). […]
# Cell viability was assessed at day 18 on the alginate beads using a live/dead fluorescence assay (Live/Dead®, Invitrogen) and visualized by fluorescent microscopy.
# MMP 3 = target: T1, MMP 3 (Homo sapiens, UniProt P08254); assay: Proteinase treatment of Link N, peak area by mass spectrometry; assay type: in vitro ADME; details: 30 minutes, 2 and 24 hours
# T1 construct: purchased R&D Systems
# Experimental: (§5) 300 μg Link N 1-16 was incubated for 30 minutes, 2 and 24 hours in the presence of 10 different proteinases. The buffer used for MMPs 3, 7, 12, 13, ADAMTS 4,5, HTRA1 was composed of 50 mM Tris-HCl, 200 mM NaCl, 5 mM CaCl2, 0.01% Rapigest. For cathepsins K, B, and L, the digest buffer was composed of 2.5 mM DTT, 0.15% chondroitin sulfate A, 0.1 M sodium acetate, pH 5.5.
# (§6) 25 μL medium samples, collected from the monolayer cultures described above or peptide digests were purified on C18 spin columns according to standard protocols (Harvard Apparatus, Holliston, Mass.). Eluted peptides were reconstituted in 20 μL, 2% acetonitrile and 0.2% formic acid (FA). Samples were injected and quantified using a triple quadropole mass spectrometer TSQ Vantage™ (Thermo Scientific, Waltham, Mass.) equipped with an easy nano-LC system (Thermo Scientific). The mass spectrometer was operated in SRM mode, with both Q1 and Q3 settings at unit resolution (FWHM 0.7 Da). A spray voltage of +1,700 V was used with a heated ion transfer setting of 270° C. for desolvation. Data were acquired using the Xcalibur software (version 2.1). Mobile phases used were A (0.1% FA in water) and B (100% acetonitrile in 0.1% FA). Separation was performed on 10 μm tip, 75 μm×15 cm capillary columns (PicoTip™ emitter, New Objective, Woburn, Mass.) packed with Reprosil-Pur C18-AQ resin (3 μm, Dr. Maich GmbH, Switzerland). 1 μL sample was injected and separation was performed at a flow rate of 300 nL/min using a gradient of 97% mobile phase A for 5 min, 85% A for 8 min, 65% A for 42 min, and 19% A for 45-50 min.
# cathepsin L = cathepsin L (Homo sapiens, UniProt P07711); assay: as above; assay type: in vitro ADME; details: 30 minutes, 2 and 24 hours
# Experimental: as §5, §6
# cathepsin B = cathepsin B (Homo sapiens, UniProt P07858); assay: as above; assay type: in vitro ADME; details: 30 minutes, 2 and 24 hours
# Experimental: as §5, §6
# cathepsin K = target: T2, cathepsin K (Homo sapiens, UniProt P43235); assay: as above; assay type: in vitro ADME
# T2 sequence (P43235 115-329): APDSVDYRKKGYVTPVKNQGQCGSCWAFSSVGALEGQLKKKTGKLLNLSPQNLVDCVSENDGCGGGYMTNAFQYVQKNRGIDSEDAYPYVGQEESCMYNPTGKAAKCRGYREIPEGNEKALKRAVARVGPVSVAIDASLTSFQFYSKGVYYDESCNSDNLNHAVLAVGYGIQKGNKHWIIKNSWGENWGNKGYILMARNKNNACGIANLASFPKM
# Experimental: as §5, §6
# HTRA1 = target: T3, HTRA1 (Homo sapiens, UniProt Q92743); assay: as above; assay type: in vitro ADME; details: 30 minutes, 2 and 24 hours
# T3 construct: purchased Thermo Scientific
# Experimental: as §5, §6
# MMP 12 = target: T4, MMP 12 (Homo sapiens, UniProt P39900); assay: as above; assay type: in vitro ADME; details: 30 minutes, 2 and 24 hours
# T4 construct: purchased R&D Systems
# Experimental: as §5, §6
# ADAMTS 4 = target: T5, ADAMTS 4 (Homo sapiens, UniProt O75173); assay: as above; assay type: in vitro ADME; details: 30 minutes, 2 and 24 hours
# T5 construct: purchased R&D Systems
# Experimental: as §5, §6
# ADAMTS 5 = target: T6, ADAMTS 5 (Homo sapiens, UniProt Q9UNA0); assay: as above; assay type: in vitro ADME; details: 30 minutes, 2 and 24 hours
# T6 construct: purchased R&D Systems
# Experimental: as §5, §6
# MMP 13 = target: T7, MMP 13 (Homo sapiens, UniProt P45452); assay: as above; assay type: in vitro ADME; details: 30 minutes, 2 and 24 hours
# T7 construct: purchased R&D Systems
# Experimental: as §5, §6
# MMP 7 = target: T8, MMP 7 (Homo sapiens, UniProt P09237); assay: as above; assay type: in vitro ADME; details: 30 minutes, 2 and 24 hours
# T8 construct: purchased R&D Systems
# Experimental: as §5, §6
# [6] = cited from earlier work
# human NP cells = assay: Stability of Link N in the presence of cells (monolayer, mass spectrometry); assay type: in vitro ADME; details: Link N 1 μg/mL, 37° C.
# Experimental: as §4
# 25 μL medium samples, collected from the monolayer cultures described above or peptide digests were purified on C18 spin columns according to standard protocols (Harvard Apparatus, Holliston, Mass.). Eluted peptides were reconstituted in 20 μL, 2% acetonitrile and 0.2% formic acid (FA). Samples were injected and quantified using a triple quadropole mass spectrometer TSQ Vantage™ (Thermo Scientific, Waltham, Mass.) equipped with an easy nano-LC system (Thermo Scientific). The mass spectrometer was operated in SRM mode, with both Q1 and Q3 settings at unit resolution (FWHM 0.7 Da). A spray voltage of +1,700 V was used with a heated ion transfer setting of 270° C. for desolvation. Data were acquired using the Xcalibur software (version 2.1). […]
# T5 sequence (O75173 213-837): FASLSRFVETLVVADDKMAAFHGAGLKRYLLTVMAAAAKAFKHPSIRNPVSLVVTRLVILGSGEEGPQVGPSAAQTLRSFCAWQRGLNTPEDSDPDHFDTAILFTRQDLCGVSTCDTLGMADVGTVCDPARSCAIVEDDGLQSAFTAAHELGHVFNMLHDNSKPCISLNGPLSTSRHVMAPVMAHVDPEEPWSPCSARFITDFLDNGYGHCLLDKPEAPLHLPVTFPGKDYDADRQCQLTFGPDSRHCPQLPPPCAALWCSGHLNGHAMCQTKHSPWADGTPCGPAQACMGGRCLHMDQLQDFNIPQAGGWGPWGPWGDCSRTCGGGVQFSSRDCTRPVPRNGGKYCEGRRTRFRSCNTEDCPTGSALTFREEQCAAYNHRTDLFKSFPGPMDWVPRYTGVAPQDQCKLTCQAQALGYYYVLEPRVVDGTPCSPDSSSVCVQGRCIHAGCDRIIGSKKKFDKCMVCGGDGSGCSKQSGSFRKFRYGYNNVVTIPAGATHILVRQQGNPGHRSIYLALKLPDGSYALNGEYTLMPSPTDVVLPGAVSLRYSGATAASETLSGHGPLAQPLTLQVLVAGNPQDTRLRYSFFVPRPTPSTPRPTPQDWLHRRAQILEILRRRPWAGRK
# cathepsin L, sequence (P07711 114-333): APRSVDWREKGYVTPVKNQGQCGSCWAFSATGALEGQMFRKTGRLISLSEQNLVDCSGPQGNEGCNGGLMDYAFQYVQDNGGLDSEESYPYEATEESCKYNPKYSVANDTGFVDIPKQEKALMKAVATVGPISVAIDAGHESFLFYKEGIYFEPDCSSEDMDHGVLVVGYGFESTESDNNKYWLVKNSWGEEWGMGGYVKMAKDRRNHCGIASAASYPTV
# T6 sequence (Q9UNA0 262-930): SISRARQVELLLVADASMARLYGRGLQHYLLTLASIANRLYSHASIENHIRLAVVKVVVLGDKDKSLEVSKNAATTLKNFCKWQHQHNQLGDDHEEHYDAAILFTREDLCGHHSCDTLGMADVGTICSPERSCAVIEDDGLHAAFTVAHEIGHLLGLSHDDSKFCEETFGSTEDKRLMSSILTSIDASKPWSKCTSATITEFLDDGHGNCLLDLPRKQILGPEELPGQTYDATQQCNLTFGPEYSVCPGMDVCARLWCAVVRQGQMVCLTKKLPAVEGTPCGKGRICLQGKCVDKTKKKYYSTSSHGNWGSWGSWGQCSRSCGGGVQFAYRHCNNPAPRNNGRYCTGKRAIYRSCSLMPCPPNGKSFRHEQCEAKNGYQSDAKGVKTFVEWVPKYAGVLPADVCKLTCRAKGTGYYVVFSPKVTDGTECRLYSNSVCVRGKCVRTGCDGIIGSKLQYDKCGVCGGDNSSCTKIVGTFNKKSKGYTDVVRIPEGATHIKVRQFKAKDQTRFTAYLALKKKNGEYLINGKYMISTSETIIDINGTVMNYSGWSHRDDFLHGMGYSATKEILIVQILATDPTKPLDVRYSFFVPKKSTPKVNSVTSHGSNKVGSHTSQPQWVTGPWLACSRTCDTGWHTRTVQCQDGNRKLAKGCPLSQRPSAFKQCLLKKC
# T3 sequence (Q92743 23-480): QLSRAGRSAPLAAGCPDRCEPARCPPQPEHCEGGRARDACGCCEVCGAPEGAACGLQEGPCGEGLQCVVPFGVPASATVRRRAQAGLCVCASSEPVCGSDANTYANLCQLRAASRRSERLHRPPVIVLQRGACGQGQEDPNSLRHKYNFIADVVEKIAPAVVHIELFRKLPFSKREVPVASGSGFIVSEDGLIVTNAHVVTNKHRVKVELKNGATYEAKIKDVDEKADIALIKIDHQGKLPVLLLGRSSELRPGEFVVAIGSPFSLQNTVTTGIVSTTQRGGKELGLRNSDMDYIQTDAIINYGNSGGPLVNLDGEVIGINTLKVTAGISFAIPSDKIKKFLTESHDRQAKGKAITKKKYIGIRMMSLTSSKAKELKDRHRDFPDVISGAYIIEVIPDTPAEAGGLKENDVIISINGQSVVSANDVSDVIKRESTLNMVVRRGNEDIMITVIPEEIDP
# T8 sequence (P09237 95-267): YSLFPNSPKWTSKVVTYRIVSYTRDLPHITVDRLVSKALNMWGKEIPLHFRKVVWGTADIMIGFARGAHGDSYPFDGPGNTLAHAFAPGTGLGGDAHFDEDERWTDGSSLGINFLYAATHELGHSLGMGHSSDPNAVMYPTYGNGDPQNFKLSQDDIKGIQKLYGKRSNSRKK
# T1 sequence (P08254 100-477): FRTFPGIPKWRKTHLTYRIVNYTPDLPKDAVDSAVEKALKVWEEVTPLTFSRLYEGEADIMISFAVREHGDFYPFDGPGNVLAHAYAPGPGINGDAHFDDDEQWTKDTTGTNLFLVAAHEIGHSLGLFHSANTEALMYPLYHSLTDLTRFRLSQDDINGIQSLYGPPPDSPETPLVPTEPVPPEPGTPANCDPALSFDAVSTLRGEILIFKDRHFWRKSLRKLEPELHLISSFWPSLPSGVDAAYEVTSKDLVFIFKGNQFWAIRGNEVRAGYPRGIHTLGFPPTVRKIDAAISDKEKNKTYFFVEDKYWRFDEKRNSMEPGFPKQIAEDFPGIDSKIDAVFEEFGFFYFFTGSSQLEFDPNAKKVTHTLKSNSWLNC
# T4 sequence (P39900 106-470): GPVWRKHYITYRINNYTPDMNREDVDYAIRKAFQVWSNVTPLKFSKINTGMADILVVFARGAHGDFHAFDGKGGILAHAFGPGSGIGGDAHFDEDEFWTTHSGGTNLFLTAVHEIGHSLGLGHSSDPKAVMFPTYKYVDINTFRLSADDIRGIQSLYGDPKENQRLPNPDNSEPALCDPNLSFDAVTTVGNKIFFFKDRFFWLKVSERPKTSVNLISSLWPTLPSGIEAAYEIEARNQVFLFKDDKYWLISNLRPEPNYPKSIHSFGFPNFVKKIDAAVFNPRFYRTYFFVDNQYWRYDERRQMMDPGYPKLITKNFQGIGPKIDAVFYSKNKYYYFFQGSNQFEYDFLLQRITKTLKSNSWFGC
sequence,measurement,setting,value
"DLNRAHLHIDYHTDSD [S-Link N, scrambled Link N]",proteoglycan synthesis (35SO4 incorporation),[1],no response
same,proteoglycan synthesis (35SO4 incorporation),[2],no response
same,proteoglycan synthesis (35SO4 incorporation),[3],no effect was observed
same,proteoglycan synthesis (35SO4 incorporation),[4],no effect was observed
"HIARDHDLTYNDSLHD [R-Link N, reverse Link N]",proteoglycan synthesis (35SO4 incorporation),[1],no response
same,proteoglycan synthesis (35SO4 incorporation),[2],no response
same,proteoglycan synthesis (35SO4 incorporation),[3],no effect was observed
same,proteoglycan synthesis (35SO4 incorporation),[4],no effect was observed
"DHLSDNYTLDHDRAIH [Link N, DHLSDNYTLDHDRAIH]",processed product of Link N identified by tandem mass spectrometry,"human AF cells; AF cell culture medium, 964.4 Da peptide",a peptide spanning residues 1 to 8 was generated
same,peak area intensity of intact Link N in the presence of AF cells,human AF cells; after 48 h,only trace amounts were present
same,peak area intensity of intact Link N in the presence of AF cells,human AF cells; by 6 h,decrease
same,"viability at 432 h, 1 µg/mL",[5],> 98%
same,peak area intensity of the 1922 Da Link 1-16 peptide,MMP 3,un-affected
same,peak area intensity of the 1922 Da Link 1-16 peptide,cathepsin L,un-affected
same,peak area intensity of the 1922 Da Link 1-16 peptide,cathepsin B,un-affected
same,peak area intensity of the 1922 Da Link 1-16 peptide,cathepsin K; 2 and 24 hours,hardly detectable
same,peak area intensity of the 1922 Da Link 1-16 peptide,cathepsin K; 30 minutes,significantly diminished
same,cleavage of Link N by cathepsin K (MRM of Link 1-8 and Link 9-16),cathepsin K; 2 hours,single cleavage between amino acids 8 and 9
same,peak area intensity of the 1922 Da Link 1-16 peptide,HTRA1,un-affected
same,peak area intensity of the 1922 Da Link 1-16 peptide,MMP 12,un-affected
same,peak area intensity of the 1922 Da Link 1-16 peptide,ADAMTS 4,un-affected
same,peak area intensity of the 1922 Da Link 1-16 peptide,ADAMTS 5,un-affected
same,peak area intensity of the 1922 Da Link 1-16 peptide,MMP 13,un-affected
same,peak area intensity of the 1922 Da Link 1-16 peptide,MMP 7,un-affected
same,retention of Link N in the human disc,[6],only lost slowly through the endplate and not AF
same,time the peptide was stable in the presence of NP cells,human NP cells,at least 48 h
